How the values were obtained:
[1] = target: Human cGAS amino acids 155-522 (Homo sapiens (Human), UniProt Q8N884); assay: cGAS biochemical activity assay (ATP remaining, Kinase-Glo Max luminescence); conditions: human cGAS 155-522, ATP remaining (Kinase-Glo Max); read-out: cGAS IC50
[2] = test system: cGAS/STING pathway in THP1 cells; assay: THP1 cell-based cGAS/STING pathway activity assay (IRF-3-linked luciferase reporter); conditions: Homo sapiens, THP-1
How it was run: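 THP1 cells carrying an IRF-3-driven luciferase reporter were read across a range of compound concentrations, and IC50 values were derived from these concentration responses; the assay upper limit was 100 μM.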

[3] = test system: RANTES/CCL5 secretion by Trex1-KO BMM; assay: Inhibition of RANTES/CCL5 secretion by Trex1-KO bone marrow-derived macrophages; assay type: cell-based, mice; set-up: key to BMM IC50 R (RANTES): A: an IC50 value less than 5 μM; B: an IC50 value between 5 and 20 μM; where an IC50 value could not be calculated from the data; conditions: RANTES secretion; for IC50: Mus musculus, Macrophage, read-out: BMM IC50 R (RANTES)
Protocol: (§1) A cellular assay can be used to asses the compounds of the invention for their ability to inhibit cytokine production. Bone marrow macrophages harvested from mice can be used to determine response as a function of compound concentration.
(§2) The inhibition of secreted cytokine was measured in bone marrow-derived macrophages (BMMs) from diseased mice to evaluate the potency of compounds of the invention as described herein. […] To derive bone marrow macrophages, marrow extracted from the femurs and tibias were harvested from Trex1-KO mice was cultured in growth media supplemented with macrophage colony-stimulating factor (M-CSF). Differentiated BMM were harvested and frozen for subsequent experimentation. For treatment with compound C1089 (see Example 13), a frozen stock of Trex1-KO BMM was thawed and 1×10^5 cells were plated in 96 well format. BMMs were treated with a dilution series of C1089 and incubated overnight at 37° C. 5% CO2, at which point cellular supernatants were harvested and stored at −80° C. for subsequent analysis. The media used for this dilution series was without FBS. Remaining cells were evaluated for viability using Cell Titer Glo 2.0 kit according to the manufacturer instructions. BMM supernatants were evaluated for the secreted cytokine […] (RANTES/CCL5) or for secreted cytokine monocyte chemoattractant protein 1 (MCP-1/CCL2) using cytometric bead array mouse Flex Set kits (BD Biosciences). Cytokine concentration was calculated from a standard curve and normalized to vehicle (DMSO) treated cells.

[4] = test system: MCP-1/CCL2 secretion by Trex1-KO BMM; assay: Inhibition of MCP-1/CCL2 secretion by Trex1-KO bone marrow-derived macrophages; assay type: cell-based, mice; set-up: key to BMM IC50 M (MCP-1): A: an IC50 value less than 5 μM; B: an IC50 value between 5 and 20 μM; where an IC50 value could not be calculated from the data; conditions: MCP-1 secretion; for IC50: Mus musculus, Macrophage, read-out: BMM IC50 M (MCP-1)
Protocol: as §1, §2

Human cGAS amino acids 155-522, sequence (Q8N884 157-522): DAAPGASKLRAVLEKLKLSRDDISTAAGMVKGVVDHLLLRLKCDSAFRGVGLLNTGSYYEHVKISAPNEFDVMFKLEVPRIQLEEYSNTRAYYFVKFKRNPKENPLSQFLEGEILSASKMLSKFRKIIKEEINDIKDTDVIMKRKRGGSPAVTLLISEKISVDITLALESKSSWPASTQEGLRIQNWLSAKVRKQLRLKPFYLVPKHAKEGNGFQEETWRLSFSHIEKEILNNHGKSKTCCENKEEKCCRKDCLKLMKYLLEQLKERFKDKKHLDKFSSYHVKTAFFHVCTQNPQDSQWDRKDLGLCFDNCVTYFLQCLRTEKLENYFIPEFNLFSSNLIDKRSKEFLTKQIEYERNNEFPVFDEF

Row | Compound | IC50 [1] | IC50 [2] | BMM IC50 R (RANTES) [3] | BMM IC50 M (MCP-1) [4] | IC50 [3] | IC50 [4]
1 | Cc1[nH]c2c(-c3ccccc3)c(C(F)(F)F)nn2c(=O)c1-c1nc2c(OCC(=O)O)cccc2o1 [Compound C1117, 2-((2-(5-methyl-7-oxo-3-phenyl-2-(trifluoromethyl)-4,7-dihydropyrazolo[1,5-a]pyrimidin-6-yl)benzo[d]oxazol-4-yl)oxy)acetic acid] | < 20 µM | > 100 µM | C | C |  | 
2 | COc1ccc(Cl)c2oc(-c3c(C)[nH]c4c(-c5ccccc5)c(C#N)nn4c3=O)nc12 [Compound C1205, 6-(7-chloro-4-methoxybenzo[d]oxazol-2-yl)-5-methyl-7-oxo-3-phenyl-4,7-dihydropyrazolo[1,5-a]pyrimidine-2-carbonitrile] | < 20 µM | > 100 µM | C | C |  | 
3 | CO[C@@](c1ccccc1)(c1nnc(-c2c(C)[nH]c3c(-c4ccccc4)c(C(F)(F)F)nn3c2=O)o1)C(F)(F)F [Compound D1028, (S)-5-methyl-3-phenyl-6-(5-(2,2,2-trifluoro-1-methoxy-1-phenylethyl)-1,3,4-oxadiazol-2-yl)-2-(trifluoromethyl)pyrazolo[1,5-a]pyrimidin-7(4H)-one] | < 20 µM | > 100 µM | C | C |  | 
4 | COc1cc(C)cc2oc(-c3c(C)[nH]c4c(-c5ccccc5)c(C(F)(F)F)nn4c3=O)nc12 [Compound C1098, 6-(4-methoxy-6-methylbenzo[d]oxazol-2-yl)-5-methyl-3-phenyl-2-(trifluoromethyl)pyrazolo[1,5-a]pyrimidin-7(4H)-one] | < 20 µM | < 20 µM |  |  | < 5 µM | 5 to 20 µM
5 | COc1c(Br)ccc2oc(-c3c(C)[nH]c4c(-c5ccccc5)c(C(F)(F)F)nn4c3=O)nc12 [Compound C1082, 6-(5-bromo-4-methoxybenzo[d]oxazol-2-yl)-5-methyl-3-phenyl-2-(trifluoromethyl)pyrazolo[1,5-a]pyrimidin-7(4H)-one] | < 20 µM | < 20 µM | C | C |  | 
6 | Cc1[nH]c2c(-c3ccccc3)c(C(F)(F)F)nn2c(=O)c1-c1nc2c(OCc3ccccc3)cccc2o1 [Compound C1073, 6-(4-(benzyloxy)benzo[d]oxazol-2-yl)-5-methyl-3-phenyl-2-(trifluoromethyl)pyrazolo[1,5-a]pyrimidin-7(4H)-one] | < 20 µM | < 20 µM | C | C |  | 
7 | Cc1[nH]c2c(-c3ccccc3)c(C(F)(F)F)nn2c(=O)c1-c1nc(C(=O)O)c(C2CCCCC2)o1 [Compound C1169, 5-cyclohexyl-2-(5-methyl-7-oxo-3-phenyl-2-(trifluoromethyl)-4,7-dihydropyrazolo[1,5-a]pyrimidin-6-yl)oxazole-4-carboxylic acid] | < 20 µM | 20 to 100 µM | C | C |  | 
8 | COCCOCc1[nH]c2c(-c3ccccc3)c(C(F)(F)F)nn2c(=O)c1-c1nc2c(OC)cccc2o1 [Compound C1151, 6-(4-methoxybenzo[d]oxazol-2-yl)-5-((2-methoxyethoxy)methyl)-3-phenyl-2-(trifluoromethyl)pyrazolo[1,5-a]pyrimidin-7(4H)-one] | < 20 µM | < 20 µM |  | C | 5 to 20 µM | 
9 | COc1cccc2oc(-c3c(C)[nH]c4c(-c5cccc(F)c5)c(C(F)(F)F)nn4c3=O)nc12 [Compound C1114, 3-(3-fluorophenyl)-6-(4-methoxybenzo[d]oxazol-2-yl)-5-methyl-2-(trifluoromethyl)pyrazolo[1,5-a]pyrimidin-7(4H)-one] | < 20 µM | < 20 µM | C |  |  | 5 to 20 µM
10 | COc1cccc2oc(-c3c(SC)[nH]c4c(-c5ccccc5)c(C(F)(F)F)nn4c3=O)nc12 [Compound C1121, 6-(4-methoxybenzo[d]oxazol-2-yl)-5-(methylthio)-3-phenyl-2-(trifluoromethyl)pyrazolo[1,5-a]pyrimidin-7(4H)-one] | < 20 µM | < 20 µM | C |  |  | < 5 µM
11 | Cc1[nH]c2c(-c3ccccc3)c(C(F)(F)F)nn2c(=O)c1-c1nc2c(Cl)cccc2o1 [Compound C1055, 6-(4-chlorobenzo[d]oxazol-2-yl)-5-methyl-3-phenyl-2-(trifluoromethyl)pyrazolo[1,5-a]pyrimidin-7(4H)-one] | < 20 µM | < 20 µM | C | C |  | 
12 | CCOC(=O)C1CC=C(c2[nH]c3c(-c4ccccc4)c(C(F)(F)F)nn3c(=O)c2-c2nc3c(OC)cccc3o2)CC1 (centres unmarked) [Compound C1233, ethyl 4-(6-(4-methoxybenzo[d]oxazol-2-yl)-7-oxo-3-phenyl-2-(trifluoromethyl)-4,7-dihydropyrazolo[1,5-a]pyrimidin-5-yl)cyclohex-3-ene-1-carboxylate] | < 20 µM | < 20 µM | C | C |  | 
13 | CSc1cccc2oc(-c3c(C)[nH]c4c(-c5ccccc5)c(C(F)(F)F)nn4c3=O)nc12 [Compound C1047, 5-methyl-6-(4-(methylthio)benzo[d]oxazol-2-yl)-3-phenyl-2-(trifluoromethyl)pyrazolo[1,5-a]pyrimidin-7(4H)-one] | < 20 µM | < 20 µM |  |  | < 5 µM | 5 to 20 µM
14 | COc1cc(N)cc2oc(-c3c(C)[nH]c4c(-c5ccccc5)c(C#N)nn4c3=O)nc12 [Compound C1175, 6-(6-amino-4-methoxybenzo[d]oxazol-2-yl)-5-methyl-7-oxo-3-phenyl-4,7-dihydropyrazolo[1,5-a]pyrimidine-2-carbonitrile] | < 20 µM | 20 to 100 µM | C | C |  | 
15 | Cc1[nH]c2c(-c3ccccc3)c(C(F)(F)F)nn2c(=O)c1C(=O)Nc1cc(Br)cc(CN(C)C)c1 [Compound A1139, N-(3-bromo-5-((dimethylamino)methyl)phenyl)-5-methyl-7-oxo-3-phenyl-2-(trifluoromethyl)-4,7-dihydropyrazolo[1,5-a]pyrimidine-6-carboxamide] | < 20 µM | < 20 µM | C | C |  | 
16 | Cc1[nH]c2c(-c3ccccc3)c(C(F)(F)F)nn2c(=O)c1C(=O)Nc1nc(C2CC2)cs1 [Compound A1095, N-(4-cyclopropylthiazol-2-yl)-5-methyl-7-oxo-3-phenyl-2-(trifluoromethyl)-4,7-dihydropyrazolo[1,5-a]pyrimidine-6-carboxamide] | < 20 µM | < 20 µM | C | C |  | 
17 | COc1cc(Br)cc(NC(=O)c2c(C)[nH]c3c(-c4ccccc4)c(C(F)(F)F)nn3c2=O)c1 [Compound A1129, N-(3-bromo-5-methoxyphenyl)-5-methyl-7-oxo-3-phenyl-2-(trifluoromethyl)-4,7-dihydropyrazolo[1,5-a]pyrimidine-6-carboxamide] | < 20 µM | 20 to 100 µM | C |  |  | 5 to 20 µM
18 | COc1ccc(C(N)=O)c2oc(-c3c(C)[nH]c4c(-c5ccccc5)c(C(F)(F)F)nn4c3=O)nc12 [Compound C1113, 4-methoxy-2-(5-methyl-7-oxo-3-phenyl-2-(trifluoromethyl)-4,7-dihydropyrazolo[1,5-a]pyrimidin-6-yl)benzo[d]oxazole-7-carboxamide] | < 20 µM | < 20 µM | C |  |  | < 5 µM
19 | Cc1[nH]c2c(-c3ccccc3)c(C(F)(F)F)nn2c(=O)c1-c1nnc(C#N)o1 [Compound D1071, 5-(5-methyl-7-oxo-3-phenyl-2-(trifluoromethyl)-4,7-dihydropyrazolo[1,5-a]pyrimidin-6-yl)-1,3,4-oxadiazole-2-carbonitrile] | < 20 µM | < 20 µM |  |  | < 5 µM | 5 to 20 µM
20 | COCc1[nH]c2c(-c3ccccc3)c(C#N)nn2c(=O)c1-c1nc2c(OC)cccc2o1 [Compound C1139, 6-(4-methoxybenzo[d]oxazol-2-yl)-5-(methoxymethyl)-7-oxo-3-phenyl-4,7-dihydropyrazolo[1,5-a]pyrimidine-2-carbonitrile] | < 20 µM | < 20 µM |  |  | 5 to 20 µM | 5 to 20 µM

— patent publication US10738056B2 (Aduro BioTech, Inc., priority 2017, dated 2020)
